Data set [1] has as its system CIPN rats (mechanical allodynia). Description: Antiallodynic effect (von Frey) in chemotherapy-induced peripheral neuropathy (CIPN) rats. In kind it is in vivo. The note with it: Rattus norvegicus, intravenous administration. As for the experimental part: 3-1. Evaluation of In Vivo Efficacy
The antiallodynic effects (mechanical allodynia) were evaluated using rats according to a previously reported protocol. In order to evaluate the withdrawal threshold, rats (naive, SNL and CIPN) were placed on a plastic mesh floor of individual plastic cages. The rats were allowed to acclimate to the environment for 30 minutes and examined after intrathecal or intravenous administration to the caudal vein. The control group received the same volume of vehicle (intrathecal administration of saline or DMSO, intravenous administration of DMSO:PEG:PBS=1:6:3 v/v %) as the experimental groups. Evaluation of the mechanical withdrawal threshold was measured in responses to the application of calibrated von Frey filaments (Stoelting, Wood Dale, Ill., USA) to the hind paw of the rats through the holes on the mesh floor underneath the cage using the ‘up and down method’. A series of eight von Frey filaments (0.4, 0.7, 1.2, 2.0, 3.6, 5.5, 8.5, and 15 g) was applied perpendicular to the sole of the hind paw for 5 seconds while the head was bent. Active withdrawal or flinching of the paw was considered as a positive reaction. The absence of response in the rats, when a pressure was applied to 15 g von Frey filament, was used as a cut-off value. Only rats with definite allodynia (i.e., mechanical withdrawal threshold: less than 4 g after SNL or less than 5 g after CIPN) were tested. The rats after termination of the experiments were euthanized through an overdose of sevoflurane. The withdrawal threshold data for the von Frey filament test was calculated as % MPE (maximum possible effect) based on the following Calculation Equation: % MPE=[(Post-drug threshold−Post-injured baseline threshold)/(Cutoff threshold−post-injured baseline threshold)×100]. Dose-response data were analyzed using Scheffe's post hoc test and one-way analysis of variance (ANOVA).

For the next data set, the target named is T1, hERG K+ channel (Homo sapiens, UniProt Q12809).
T1 construct: host or cells: CHO-K1 Tet-On hERG cells
Description: hERG K+ channel patch-clamp assay in CHO-K1 Tet-On hERG cells. In kind it is cell-based. As for the experimental part: 2-2. hERF Channel Test Method
hERG K^+ Channel Conventional Patch-Clamp Assay
CHO-K1 cells expressing hERG channels via an inducible Tet-On gene expression system (CHO-K1 Tet-On hERG cells) were purchased from IonGate Biosciences GmbH (Frankfurt, Germany). CHO-K1 Tet-On hERG cells were incubated in Dulbecco's modified Eagle's medium (DMEM) containing 10% (v/v) fetal bovine serum, penicillin (100 U/mL), streptomycin (100 μg/mL), fungizone (2.5 μg/mL), as well as selection antibiotics, geneticin G418 (200 μg/mL), hygromycin (200 μg/mL) and puromycin (2 μg/mL) in a humidified condition of 5% CO2 at 37° C. The cells were passaged by treatment with trypsin-EDTA every three days. […]
NPC-16 Patchliner (Nanion Technologies, Munchen, Germany), an automated patch-clamp apparatus, was used for the whole-cell recordings. Whole-cell currents were recorded using an intracellular solution (unit in mM) containing 50 KCl, 60 KF, 10 NaCl, 2 MgCl2, 20 EGTA and 10 HEPES (pH 7.2) and an extracellular solution (unit in mM) containing 140 NaCl, 4 KCl, 2 CaCl2, 1MgCl2, 5 glucose and 10 HEPES (pH 7.4). […]
hERG channel currents were recorded using a parallel EPC-10 patch clamp amplifier (HEKA Elektronik, Lambrecht/Pfalz, Germany), and low-pass filtering (10 kHz) was performed with a 4-pole Bessel filter. […]
A general note: Block of hERG is tested as a sign of cardiac risk.

As usually defined, the ED50 is the midpoint of the dose-response relation. The IC50 is the concentration needed to halve the response being measured. Low values mean greater potency, high ones weaker potency.

T1 sequence (Q12809 whole entry): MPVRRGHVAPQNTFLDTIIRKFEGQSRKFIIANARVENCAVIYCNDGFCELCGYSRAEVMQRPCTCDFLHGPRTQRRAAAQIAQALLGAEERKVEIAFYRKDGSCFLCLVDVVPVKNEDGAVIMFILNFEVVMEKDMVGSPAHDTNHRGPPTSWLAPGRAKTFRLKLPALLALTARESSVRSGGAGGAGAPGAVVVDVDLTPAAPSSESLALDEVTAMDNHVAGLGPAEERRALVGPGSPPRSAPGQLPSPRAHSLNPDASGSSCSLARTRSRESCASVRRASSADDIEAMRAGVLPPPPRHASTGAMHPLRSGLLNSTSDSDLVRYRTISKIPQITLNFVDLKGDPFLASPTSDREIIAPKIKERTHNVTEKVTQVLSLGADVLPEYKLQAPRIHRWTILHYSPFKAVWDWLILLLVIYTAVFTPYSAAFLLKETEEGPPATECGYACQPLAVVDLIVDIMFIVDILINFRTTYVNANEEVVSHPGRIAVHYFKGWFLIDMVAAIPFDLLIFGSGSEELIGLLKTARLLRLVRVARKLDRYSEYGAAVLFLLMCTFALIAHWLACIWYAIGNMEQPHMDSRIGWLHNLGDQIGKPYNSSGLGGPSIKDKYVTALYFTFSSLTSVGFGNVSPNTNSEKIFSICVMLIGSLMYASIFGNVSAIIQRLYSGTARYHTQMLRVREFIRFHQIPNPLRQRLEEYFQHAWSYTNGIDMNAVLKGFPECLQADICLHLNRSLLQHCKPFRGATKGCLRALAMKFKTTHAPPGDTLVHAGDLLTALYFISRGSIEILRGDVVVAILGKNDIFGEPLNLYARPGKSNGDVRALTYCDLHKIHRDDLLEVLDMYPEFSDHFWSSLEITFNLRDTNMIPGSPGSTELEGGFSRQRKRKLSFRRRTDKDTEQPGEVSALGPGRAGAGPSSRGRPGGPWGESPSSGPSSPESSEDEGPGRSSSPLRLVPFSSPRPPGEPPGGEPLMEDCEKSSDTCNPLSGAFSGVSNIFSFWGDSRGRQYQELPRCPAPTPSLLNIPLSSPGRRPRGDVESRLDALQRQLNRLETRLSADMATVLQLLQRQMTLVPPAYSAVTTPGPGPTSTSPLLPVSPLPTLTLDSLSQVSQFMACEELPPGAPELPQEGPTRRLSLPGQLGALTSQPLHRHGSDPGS

In data set [1], `CCCc1nc(Cc2cccc(Oc3ccccc3)c2)c(C)c(C(=O)OC)c1O` [Compound 28, Methyl 3-hydroxy-5-methyl-6-(3-phenoxybenzyl)-2-propylisonicotinate] returned an ED50 of 2.93 mg/kg.
Compound `CCCc1nc(Cc2cccc(Oc3ccccc3)c2)c(C)c(C(=O)O)c1O` [Compound 29, 3-Hydroxy-5-methyl-6-(3-phenoxybenzyl)-2-propylisonicotinic acid] displayed an IC50 against hERG K+ channel (patch clamp, CHO-K1 Tet-On hERG cells) above 100 µM. Moreover, the “in vitro inhibitory activity against hERG channels” value on hERG K+ channel (result in words) is recorded as “did not show any inhibitory activity”.

Values taken from patent US11319289B2, “5-hydroxy pyridine-based compound for use as P2X1 and P2X3 receptor antagonist and pharmaceutical composition comprising same” (GWANGJU INSTITUTE OF SCIENCE AND TECHNOLOGY, priority 2017, dated 2022).
